Broadly, the EC50 is the midpoint of the concentration-response curve. The term IC50 denotes the concentration that inhibits the measured activity by half.

SMILES strings stand for the structures. Read-outs that look alike come from different tables or passages of the source.

The nature of data set [1]: in vitro. The following applies: African green monkey, VeroE6 + CP (CC50), Vero E6-eGFP cells with CP-100356, absence of virus, MTS.
Data set [2] relates to SARS-CoV-2-GHB-03021/2020. As to the kind of experiment: SARS-CoV-2 Infection Model in Huh7 Cells. Type of data set: cell-based. As to conditions: Severe acute respiratory syndrome coronavirus 2, Huh-7, 96 h, SARS-CoV-2, day 4 p.i., MTS.
For the next data set, the target named is T1, human cathepsin L (Homo sapiens, UniProt P07711).
T1 construct: purchased R&D Systems
Nature of the data set: cathepsin L assay. It is filed as biochemical. The following applies: 10 pM human cathepsin L, Z-FR-AMC 2 μM, class symbols. The method in brief:
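Human cathepsin L at 10 pM was preincubated 30 min with compound, then reaction started with Z-FR-AMC (2 μM final). Fluorescence (355/460 nm) read every 2 min for 30 min; IC50 from four-parameter curve fit.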

Data set [3] has as its system SARS-CoV-2-GHB-03021/2020. Nature of the data set: microbe, parasite or virus in culture. As to conditions: Severe acute respiratory syndrome coronavirus 2, Vero C1008, 96 h; read-out: VeroE6 + CP (EC50). It is filed as cell-based.
In data set [4] the test system is human beta-coronavirus OC43. As to the kind of experiment: microbe, parasite or virus in culture. Type of data set: cell-based. The following applies: Betacoronavirus 1, OC43, HeLa, 144 h, OC43 in HeLa cells, 6 days at 33° C., class symbols; read-out: EC50.
The nature of data set [5]: Cytotoxicity plates without OC43 virus (cell-titer-glo). Type of data set: cell-based, human. As to conditions: human; HeLa cells without OC43 virus, class symbols. The gist of the method:
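HeLa cells seeded overnight, then treated with serially diluted compounds in 2% FBS EMEM, uninfected, in parallel with the OC43 antiviral plates. Incubated 6 days at 33 °C; viability read by CellTiter-Glo luminescence.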

A further data set deals with 3CLpro (Severe acute respiratory syndrome coronavirus 2, UniProt P0DTD1). Nature of the data set: SARS-CoV-2 3CLpro protease assay (duplex, SAMDI-MS). Type of data set: biochemical. Further details: For the duplex assay, 3CLpro and HRV3C was added. As to conditions: 3CLpro, 30 mins preincubation, class symbols; read-out: SARS-Cov-2 IC50.
The nature of data set [6]: in vitro. As to conditions: human.
Another data set concerns the target HRV3C (Human rhinovirus 14, UniProt P03303). As to the kind of experiment: HRV3C protease assay (duplex, SAMDI-MS). Type of data set: biochemical, HRV. The gist of the method:
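Enzyme preincubated 30 min with compound at ambient temperature, then both biotinylated peptide substrates added (duplex with 3CLpro); 30 min reaction quenched with 0.5% formic acid (final). Product read by SAMDI-MS as product/internal-standard AUC ratio; IC50 from four-parameter fit.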

Where [7] appears, read: HRV3C, 30 mins preincubation, bound, read-out: HRV IC50.
The mark [8] stands for this setting: HRV3C, 30 mins preincubation, class symbols, read-out: HRV IC50.

As for `CC(C)OCCNC(=O)C(=O)[C@H](C[C@@H]1CCNC1=O)NC(=O)[C@@H]1[C@H]2CCC[C@H]2CN1C(=O)c1cc2c(Cl)cc(Cl)cc2[nH]1` [Compound 173], the CC50 in the data set “in vitro [1]” (numeric bounds) is over 50 µM; in “in vitro [6]” it was 1 to 10 µM. In addition, the half-maximal effective concentration (EC50) was 1 to 10 µM in data set [2] (class symbols), under 1 µM in data set [3] and 0.1 to 1 µM in [4]. Also, the figures for the 50% inhibitory concentration (IC50) at human cathepsin L, on 3CLpro and at HRV3C (setting [7]) were at least 10 µM, 0.02 to 0.2 µM and over 10 µM, respectively. The compound also registered a CC50 at 6 days in data set [5] of over 10 µM.
For the compound `O=C1NCC[C@H]1C[C@H](NC(=O)[C@@H]1[C@H]2CCC[C@H]2CN1C(=O)c1cc2c(C(F)(F)F)cccc2[nH]1)C(=O)CO` [Compound 63, (1S,3aR,6aS)—N-[(2S)-4-hydroxy-3-oxo-1-[(3S)-2-oxopyrrolidin-3-yl]butan-2-yl]-2-[4-(trifluoromethyl)-1H-indole-2-carbonyl]-hexahydro-1H-cyclopenta[c]pyrrole-1-carboxamide], the CC50 in “in vitro [1]” (class symbols) and in the data set “in vitro [6]” was over 10 µM each time. Also, the concentration for a half-maximal effect (EC50) is under 1 µM in [2] (class symbols), under 1 µM in data set [3] and 0.1 to 1 µM in [4]. Moreover, the IC50 is at least 10 µM against human cathepsin L, 0.02 to 0.2 µM at 3CLpro and over 10 µM at HRV3C (setting [7]). Besides, in data set [5], the CC50 at 6 days was over 10 µM.
Regarding `CC(C)NC(=O)C(=O)C(C[C@@H]1CCCNC1=O)NC(=O)[C@@H]1[C@H]2CCC[C@H]2CN1C(=O)c1cc2ccccc2[nH]1` (stereo partly drawn) [Compound 18, (1S,3aR,6aS)-2-(1H-indole-2-carbonyl)-N-(4-(isopropylamino)-3,4-dioxo-1-((S)-2-oxopiperidin-3-yl)butan-2-yl)octahydrocyclopenta[c]pyrrole-1-carboxamide], the CC50 in “in vitro [1]” (numeric bounds) and in “in vitro [6]” was over 100 µM in each case. Further, the figures for the EC50 in data set [2] (class symbols), in data set [3] and in data set [4] were 1 to 10 µM, 1 to 10 µM and 0.1 to 1 µM, respectively. The figures for the IC50 at human cathepsin L, on 3CLpro and at HRV3C (setting [8]) were at least 10 µM, 0.02 to 0.2 µM and 0.2 to 2 µM, respectively. The same compound came in with a CC50 at 6 days in data set [5] of over 10 µM.
With `COc1cccc2[nH]c(C(=O)N3CC4(CC4)C[C@H]3C(=O)N[C@@H](C[C@@H]3CCCNC3=O)C(=O)CO)cc12` [Compound 42, (S)—N—((S)-4-hydroxy-3-oxo-1-((S)-2-oxopiperidin-3-yl)butan-2-yl)-5-(4-methoxy-1H-indole-2-carbonyl)-5-azaspiro[2.4]heptane-6-carboxamide], the CC50 in “in vitro [1]” (numeric bounds) and in “in vitro [6]” was over 100 µM throughout. The EC50 fell in the range of 1 to 10 µM in [2] (class symbols), 1 to 10 µM in data set [3] and 0.1 to 1 µM in data set [4]. The 50% inhibitory concentration (IC50) is at least 10 µM against human cathepsin L, 0.02 to 0.2 µM at 3CLpro and 2 to 20 µM on HRV3C (setting [8]). In data set [5], this compound gave a CC50 at 6 days of over 10 µM.
`COc1cccc2[nH]c(C(=O)N3CCc4ccccc4[C@H]3C(=O)N[C@@H](C[C@@H]3CCNC3=O)C(=O)C(=O)NC3CC3)cc12` [Compound 102]: the CC50 in the data set “in vitro [1]” (numeric bounds) and in the data set “in vitro [6]” was over 100 µM in each case. Also, the EC50 in data set [2] (class symbols) lay within 10 to 100 µM; in data set [3], 1 to 10 µM; in [4] it was 1 to 10 µM. The results for the IC50 against human cathepsin L, on 3CLpro and on HRV3C (setting [7]) were at least 10 µM, 0.2 to 2 µM and over 10 µM, respectively. In addition, the CC50 at 6 days in data set [5] is over 10 µM.
With `COc1cccc2[nH]c(C(=O)N3C[C@@H]4CCC[C@@H]4[C@H]3C(=O)N[C@@H](C[C@@H]3CCNC3=O)C(=O)c3ncc[nH]3)cc12` [Compound 54, (1S,3aR,6aS)—N-[(2S)-1-(1H-imidazol-2-yl)-1-oxo-3-[(3S)-2-oxopyrrolidin-3-yl]propan-2-yl]-2-(4-methoxy-1H-indole-2-carbonyl)-hexahydro-1H-cyclopenta[c]pyrrole-1-carboxamide], the CC50 in “in vitro [1]” (numeric bounds) and in the data set “in vitro [6]” was over 100 µM throughout. The results for the concentration for a half-maximal effect (EC50) in data set [2] (numeric bounds), in data set [3] and in data set [4] were over 100 µM, over 100 µM and 10 to 100 µM, respectively. In addition, the half-inhibitory concentration (IC50) at human cathepsin L is at least 10 µM; on 3CLpro, 2 to 20 µM; on HRV3C (HRV3C, printed bound without unit, read-out: HRV IC50), over 10 µM. In addition, the CC50 at 6 days in data set [5] was over 10 µM.
`COc1cccc2[nH]c(C(=O)N3C[C@@H]4CCC[C@@H]4[C@H]3C(=O)NC(C[C@@H]3CCNC3=O)C(=O)C(=O)NC3CC3)cc12` (stereo partly drawn) [Compound 52, 3-{[(1S,3aR,6aS)-2-(4-methoxy-1H-indole-2-carbonyl)-hexahydro-1H-cyclopenta[c]pyrrol-1-yl]formamido}-N-cyclopropyl-2-oxo-4-[(3S)-2-oxopyrrolidin-3-yl]butanamide]: the CC50 in “in vitro [1]” (numeric bounds) and in the data set “in vitro [6]” was over 100 µM in each case. Besides, the EC50 in [2] (class symbols) lay within 10 to 100 µM; in data set [3] it was 1 to 10 µM; in data set [4], 1 to 10 µM. The figures for the concentration for half-maximal inhibition (IC50) at human cathepsin L, at 3CLpro and on HRV3C (setting [8]) were at least 10 µM, under 0.02 µM and 0.2 to 2 µM, respectively. The compound also gave a CC50 at 6 days in [5] of over 10 µM.
With `COc1cccc2[nH]c(C(=O)N3CCC4(CC4)C[C@H]3C(=O)N[C@@H](C[C@@H]3CCCNC3=O)C(=O)CO)cc12` [Compound 44], the CC50 in the data set “in vitro [1]” (numeric bounds) was over 100 µM; in the data set “in vitro [6]”, over 10 µM. Further, the figures for the EC50 in data set [2] (class symbols), in data set [3] and in data set [4] were 10 to 100 µM, 10 to 100 µM and 1 to 10 µM, respectively. The concentration for half-maximal inhibition (IC50) was at least 10 µM at human cathepsin L; 0.02 to 0.2 µM on 3CLpro; over 10 µM at HRV3C (HRV IC50, HRV3C, 30 mins preincubation, bound). This compound also gave a CC50 at 6 days in data set [5] of over 10 µM.
Turning to `O=C(NCCOC1CCCC1)C(=O)[C@H](C[C@@H]1CCNC1=O)NC(=O)[C@@H]1[C@H]2CCC[C@H]2CN1C(=O)c1cc2c(Cl)cc(Cl)cc2[nH]1` [Compound 166], the CC50 in the data set “in vitro [1]” (class symbols) was over 10 µM; in “in vitro [6]” it was 1 to 10 µM. The 50% effective concentration (EC50) is under 1 µM in [2] (class symbols), under 1 µM in [3] and 0.1 to 1 µM in [4]. The IC50 against human cathepsin L is 1 to 10 µM; at 3CLpro, under 0.02 µM; on HRV3C (setting [7]), over 10 µM. Further, the CC50 at 6 days in data set [5] is over 10 µM.
As to `O=C(NC1CC1)C(=O)[C@H](C[C@@H]1CCNC1=O)NC(=O)[C@@H]1CC2(CCN1C(=O)c1cc3c(Cl)cc(Cl)cc3[nH]1)CC2` [Compound 141], the CC50 is over 50 µM in “in vitro [1]” (numeric bounds) and over 10 µM in the data set “in vitro [6]”. Moreover, the concentration for a half-maximal effect (EC50) in data set [2] (numeric bounds) was over 50 µM; in [3] it was over 50 µM; in data set [4], 0.1 to 1 µM. Also, the IC50 against human cathepsin L is 0.1 to 1 µM; at 3CLpro, 0.02 to 0.2 µM; on HRV3C (setting [8]), 2 to 20 µM. This compound also gave a CC50 at 6 days in [5] of over 10 µM.
As for `COc1cccc2[nH]c(C(=O)N3C[C@@H]4CCC[C@@H]4[C@H]3C(=O)NC(C[C@@H]3CCNC3=O)C(=O)C(=O)NCc3ccccc3)nc12` (stereo partly drawn) [Compound 36, 3-[[(1S,3aR,6aS)-2-(4-methoxy-1H-1,3-benzodiazole-2-carbonyl)-hexahydro-1H-cyclopenta[c]pyrrol-1-yl]formamido]-N-benzyl-2-oxo-4-[(3S)-2-oxopyrrolidin-3-yl]butanamide], the CC50 in “in vitro [1]” (numeric bounds) and in “in vitro [6]” was over 100 µM in each case. The EC50 in data set [2] (class symbols), in [3] and in [4] was 10 to 100 µM in each case. The IC50 is at least 10 µM at human cathepsin L, 0.02 to 0.2 µM on 3CLpro and 20 to 100 µM at HRV3C (setting [8]). In addition, in data set [5], the CC50 at 6 days was over 10 µM.
Consider `CC(C)[C@@H]1C[C@@H](C(=O)NC(C[C@@H]2CCNC2=O)C(=O)C(=O)NCc2ccccc2)N(C(=O)c2cc3ccccc3[nH]2)C1` (stereo partly drawn) [Compound 48, N-benzyl-3-{[(2S,4S)-1-(1H-indole-2-carbonyl)-4-isopropylpyrrolidin-2-yl]formamido}-2-oxo-4-[(3S)-2-oxopyrrolidin-3-yl]butanamide], for which the results for the CC50 in “in vitro [1]” (numeric bounds) and in “in vitro [6]” were over 100 µM and over 10 µM, respectively. For the same compound, the results for the EC50 in [2] (class symbols), in [3] and in data set [4] were 1 to 10 µM, 1 to 10 µM and 0.1 to 1 µM, respectively. Further, the half-inhibitory concentration (IC50) on human cathepsin L is 0.1 to 1 µM; at 3CLpro, 0.2 to 2 µM; at HRV3C (setting [8]) it was 2 to 20 µM. Besides, in data set [5], the CC50 at 6 days is over 10 µM.
Turning to `O=C(NC1CC1)C(=O)[C@H](C[C@@H]1CCNC1=O)NC(=O)[C@@H]1[C@H]2CCC[C@H]2CN1C(=O)c1cc2c(Cl)cc(Cl)cc2[nH]1` [Compound 148], the CC50 was over 50 µM in “in vitro [1]” (numeric bounds) and over 10 µM in “in vitro [6]”. For the same compound, the EC50 was under 1 µM in data set [2] (class symbols), under 1 µM in [3] and 0.1 to 1 µM in [4]. The IC50 was at least 10 µM on human cathepsin L, 0.02 to 0.2 µM on 3CLpro and 0.2 to 2 µM at HRV3C (setting [8]). The same compound yielded a CC50 at 6 days in [5] of over 10 µM.

Values taken from US11952365B2, “Anti-viral compounds” (Aligos Therapeutics, Inc., priority 2020, dated 2024).
